The text below walks through data of PubChem BioAssay (NCI).

“And” between values parts separate entries of the source, which are not always exact repeats. Identical values can stand only once.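 Assay format: 96-well plates, 48-hour exposure. At the GI50, growth is halved. The concentration for full growth arrest is given as TGI.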

Test systems include MOLT-4 leukemia; LOX IMVI melanoma; MDA-MB-231 breast; HOP-92 NSCLC; NCI/ADR-RES ovarian; NCI-H522 lung; SN12C renal; U251 CNS; SK-MEL-28 melanoma; HCC-2998 colon.
Common to all, as to test: growth of human tumour cells (NCI), 48 h

With `COc1c(C)c(C/C=C(\C)CC/C=C(\C)CC/C=C(\C)CCC=C(C)C)c(OC)c2ccccc12`, the TGI with MOLT-4 leukemia, in the assay with LOX IMVI melanoma, in the assay on MDA-MB-231 breast, in the assay with HOP-92 NSCLC, in the assay with NCI/ADR-RES ovarian and in the assay on NCI-H522 lung was over 100 µM throughout. The TGI in the assay with SN12C renal and with U251 CNS was over 100 µM each time.
Turning to `CC(=O)Oc1cc(OC(C)=O)c2c(C)cc(=O)oc2c1`, the TGI in the assay on MOLT-4 leukemia, in the assay on LOX IMVI melanoma, in the assay on MDA-MB-231 breast, in the assay with NCI/ADR-RES ovarian, with SK-MEL-28 melanoma and in the assay on SN12C renal was over 100 µM each time. This compound had a TGI with U251 CNS of over 100 µM.
For the compound `COC([C@@H](OC(=O)c1ccccc1)[C@H](OC(=O)c1ccccc1)C(O)COC(=O)c1ccccc1)n1cc(C)c(=O)[nH]c1=O` (stereo partly drawn), the TGI with MOLT-4 leukemia is 60.2 µM; in the assay with LOX IMVI melanoma it was over 100 µM; in the assay with MDA-MB-231 breast it was over 100 µM; with NCI/ADR-RES ovarian it was over 100 µM; with SK-MEL-28 melanoma, over 100 µM; in the assay with NCI-H522 lung it was over 100 µM. Moreover, the TGI with SN12C renal is over 100 µM; with U251 CNS, 58.3 µM.
On to `O=C(O)CNC(=O)c1ccc2cc(C(=O)N3CC(CCl)c4ccc([N+](=O)[O-])cc43)[nH]c2c1` (stereo not drawn), for which the TGI with MOLT-4 leukemia, with LOX IMVI melanoma, in the assay on MDA-MB-231 breast, with HOP-92 NSCLC, in the assay on NCI/ADR-RES ovarian and with NCI-H522 lung was over 100 µM throughout. The TGI in the assay on SN12C renal and in the assay with U251 CNS was over 100 µM each time.
With `C[n+]1c2ccccc2c(/C=N\NS(=O)(=O)c2ccc(Cl)cc2)c2ccccc21`, the TGI in the assay on MOLT-4 leukemia, in the assay with LOX IMVI melanoma, with HOP-92 NSCLC, in the assay with SK-MEL-28 melanoma, in the assay on NCI-H522 lung and in the assay on SN12C renal was over 100 µM each time. Also, the TGI in the assay with U251 CNS and in the assay on HCC-2998 colon was over 100 µM throughout.
For the compound `CC(=O)OCCCCn1cc(Cn2ccc(=O)n(Cc3cn(CCCCOC(C)=O)nn3)c2=O)nn1`, the TGI with MOLT-4 leukemia, with LOX IMVI melanoma, in the assay with MDA-MB-231 breast, in the assay on HOP-92 NSCLC, in the assay with NCI/ADR-RES ovarian and in the assay with SK-MEL-28 melanoma was over 100 µM in each case. For the same compound, the TGI in the assay on SN12C renal, in the assay on U251 CNS and in the assay on HCC-2998 colon was over 100 µM in each case.
In the case of `O=[N+]([O-])c1ccc([N+]2=NC(c3ccccc3)=NN(c3ccccc3)C2)cc1`, the TGI in the assay with MOLT-4 leukemia, in the assay with LOX IMVI melanoma, in the assay with HOP-92 NSCLC, with SK-MEL-28 melanoma, with NCI-H522 lung and in the assay on SN12C renal was over 100 µM in each case. Moreover, the TGI in the assay on U251 CNS is over 100 µM.
Turning to `CN(Cc1cnc2nc(N)nc(N)c2n1)c1ccc(C(=O)NC(CCC(=O)NC(CC(P(=O)(O)O)P(=O)(O)O)C(=O)O)C(=O)O)cc1` (stereo not drawn), the TGI in the assay with MOLT-4 leukemia, with LOX IMVI melanoma, in the assay with MDA-MB-231 breast, in the assay on HOP-92 NSCLC, in the assay on NCI/ADR-RES ovarian and in the assay on SK-MEL-28 melanoma was over 100 µM throughout. Moreover, the TGI with NCI-H522 lung, with SN12C renal and in the assay with U251 CNS was over 100 µM each time.
For the compound `Cc1c2ccccc2c(C)n2c1nc1ccccc12`, the TGI is over 100 µM with MOLT-4 leukemia; 45.2 µM in the assay on HOP-92 NSCLC; 39.5 µM in the assay with NCI/ADR-RES ovarian; 22.5 µM with SK-MEL-28 melanoma; 30.9 µM in the assay on SN12C renal; 22.7 µM in the assay on HCC-2998 colon.
Take `CN(C)c1ccc(/C=C/C(=O)O)cc1`: the TGI in the assay on MOLT-4 leukemia, with LOX IMVI melanoma, with NCI-H522 lung, in the assay with SN12C renal and in the assay with HCC-2998 colon was over 100 µM in each case.
As for `CNC(=S)NNc1ncnc2c1ncn2-c1ccc(C)cc1`, the TGI in the assay on MOLT-4 leukemia, with LOX IMVI melanoma, with MDA-MB-231 breast, in the assay on HOP-92 NSCLC, with NCI/ADR-RES ovarian and in the assay on SK-MEL-28 melanoma was over 100 µM each time. Moreover, the TGI in the assay on NCI-H522 lung, in the assay with SN12C renal and in the assay on U251 CNS was over 100 µM each time.
Consider `CCN(CC)CCOc1ccc(C(O)(Cc2ccc(OC)cc2)c2ccccc2)cc1` (stereo not drawn), for which the TGI with MOLT-4 leukemia is 38.4 µM; in the assay on LOX IMVI melanoma, 29 µM; with HOP-92 NSCLC it was 46 µM; in the assay with SK-MEL-28 melanoma it was 27 µM; in the assay on NCI-H522 lung, 40.9 µM; in the assay with SN12C renal, over 100 µM. Further, the TGI is 35.5 µM in the assay on U251 CNS and 27.5 µM in the assay with HCC-2998 colon.
In the case of `CC(=O)NC1(C(=O)N[C@@H](Cc2ccccc2)C(=O)NC2CCCCC2)Cc2ccc3ccccc3c2-c2c(ccc3ccccc23)C1`, the GI50 in the assay on MOLT-4 leukemia is 1.91 µM and 4.43 µM; with SK-MEL-28 melanoma it was 9.72 µM and 23.1 µM; in the assay with NCI-H522 lung, 4.56 µM and 10.4 µM. Besides, the TGI in the assay on LOX IMVI melanoma, in the assay with HOP-92 NSCLC, in the assay with NCI/ADR-RES ovarian, in the assay on SK-MEL-28 melanoma, in the assay on NCI-H522 lung and in the assay with U251 CNS was over 100 µM each time. In addition, the TGI in the assay with HCC-2998 colon was > 100 µM and 89.5 µM.
Regarding `CCC(=O)/C(=C\I)c1ccccc1`, the TGI was 7.08 µM in the assay with MOLT-4 leukemia; 2.96 µM in the assay with LOX IMVI melanoma; 3.29 µM in the assay on MDA-MB-231 breast; 4.27 µM with HOP-92 NSCLC; 32.2 µM in the assay on NCI/ADR-RES ovarian; 6.45 µM with SK-MEL-28 melanoma. Also, the TGI in the assay with SN12C renal was 5.29 µM; in the assay with U251 CNS it was 4.83 µM.
For `Cc1ccc2c(C(=O)c3c(C)n(CCN4CCOCC4)c4ccccc34)cccc2c1`, the TGI in the assay with MOLT-4 leukemia was 36.3 µM; in the assay with LOX IMVI melanoma, 42.1 µM; with MDA-MB-231 breast it was 47.9 µM; in the assay with HOP-92 NSCLC, 73.1 µM; with NCI/ADR-RES ovarian, 43.1 µM; in the assay on SK-MEL-28 melanoma, over 100 µM. For the same compound, the values for the TGI in the assay on NCI-H522 lung, with SN12C renal and in the assay on U251 CNS were 29.3 µM, over 100 µM and 41 µM, respectively.
In the case of `CC(=O)OC(C)c1cc2c(s1)C(=O)c1c(C(C)OC(C)=O)csc1C2=O` (stereo not drawn), the TGI amounted to 5.08 µM with MOLT-4 leukemia; 3.6 µM in the assay with MDA-MB-231 breast; 5.55 µM with HOP-92 NSCLC; 3.62 µM with NCI/ADR-RES ovarian; 3.27 µM in the assay with SK-MEL-28 melanoma; 2.04 µM in the assay on SN12C renal. In addition, the TGI in the assay with U251 CNS stood at 2.7 µM; in the assay with HCC-2998 colon it was 3.1 µM. Also, the GI50 in the assay with SK-MEL-28 melanoma was 1.65 µM.
